Experimental data: patent US20230022575A1, “BACTERIAL CONJUGATIVE SYSTEM AND THERAPEUTIC USES THEREOF” (SOCIÉTÉ DE COMMERCIALISATION DES PRODUITS DE LA RECHERCHE …, priority 2018, published 2023)
In brackets after ≈: the same amount, converted by molar mass.

What was measured:
EcN = experiment: Minimal inhibitory concentration (MIC) of EcN strains; type: cell-based, Escherichia coli Nissle 1917; conditions: Escherichia coli; strain EcN
KN01 = experiment: as above; type: cell-based, Escherichia coli Nissle 1917; conditions: Escherichia coli, read-out: Minimal inhibitory concentration (MIC)
KN02 = experiment: as above; type: cell-based, Escherichia coli Nissle 1917; conditions: Escherichia coli, read-out: Minimal inhibitory concentration (MIC)
[1] = test system: endogenous Enterobacteriaceae; experiment: Streptomycin treatment and EcN (KN01) colonization of the murine gut; type: in vivo, mouse; conditions: 1 g/L of Sm in drinking water, mice
Description: FIGS. 3.A to G. Streptomycin (Sm) treatment improves mouse gut colonization by Escherichia coli Nissle 1917 (EcN). The ability of different Sm concentrations to deplete endogenous Enterobacteriaceae (white area) and to promote EcN colonization (gray area) was evaluated by quantifying CFU in feces from mice treated with 0 mg/L (FIG. 3.A), 50 mg/L (FIG. 3.B), 100 mg/L (FIG. 3.C), 250 mg/L (FIG. 3.D), 450 mg/L (FIG. 3.E) and 1000 mg/L (FIG. 3.F) in drinking water starting at day −2. The colonization levels of KN01 in several sections of the intestinal tract of untreated (0) and streptomycin-treated ( ) mice was evaluated (FIG. 3.G). […]
Mouse model. All mice-related protocols were designed in compliance with our institution Animal Care Comity Guidelines and were strictly evaluated to avoid animal suffering. […] Animal weight and health was monitored daily throughout each experiment. […] For Sm treated mice groups, Sm working concentration was first evaluated to maximize Enterobacteriaceae clearance and EcN colonization (Kotula et al., 2014). […] Bacterial load was monitored in feces sampling at specified time points. […] Animals were then dissected to reveal the colonization pattern and gut bacterial content was evaluated by CFU. […]
Feces and tissues processing. […] CFUs/mg sample were calculated as a function of the sample measured weight. […]

SMILES | MIC (EcN) [µg/mL] | MIC (KN01) [µg/mL] | MIC (KN02) [µg/mL] | Enterobacteriaceae clearance and KN01 colonization [1]
CC1(C)S[C@@H]2[C@H](NC(=O)[C@H](N)c3ccccc3)C(=O)N2[C@H]1C(=O)O [Ap, ampicillin] | < 25 | < 25 | < 25 | –
O=C(N[C@H](CO)[C@H](O)c1ccc([N+](=O)[O-])cc1)C(Cl)Cl [Cm, chloramphenicol] | < 8 | < 8 | 264 (≈ 817 µM) | –
[H]/N=C(/N)N[C@H]1[C@H](O)[C@@H](O)[C@H](O[C@@H]2O[C@@H](C)[C@](O)(C=O)[C@H]2O[C@@H]2O[C@@H](CO)[C@H](O)[C@@H](O)[C@@H]2NC)[C@@H](N/C(N)=N\[H])[C@@H]1O [Sm, streptomycin] | 25 (≈ 43 µM) | 800 (≈ 1380 µM) | > 1600 | cleared Enterobactericeae while allowing stable colonization of the KN01 strain
CN[C@@H]1[C@H](O)[C@H](NC)[C@H]2O[C@@]3(O)C(=O)C[C@@H](C)O[C@H]3O[C@@H]2[C@H]1O [Sp, spectinomycin] | 50 (≈ 150 µM) | 3000 (≈ 9030 µM) | – | –
